The cell lines below were run with CC1=CC(=CC=C1)NC2=NC(=CS2)C3=CC=NC=C3 + CS(=O)(=O)CCNCc1ccc(-c2ccc3ncnc(Nc4ccc(OCc5cccc(F)c5)c(Cl)c4)c3c2)o1 [Lapatinib] (partner 2 µM) (assay: relative viability (nuclei count vs DMSO), 5 days (fraction); higher = more cells survive). Conditions: first compound 0.08 µM.
How it was run: (§1)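 Values are medians from duplicate plates. Each reflects relative viability, defined as the nuclei count of treated wells over that of vehicle wells. Lung cancer cell lines in 1536-well plates were pin-tool dosed one day after seeding with one drug alone or with a fixed anchor-drug dose plus five library-drug doses (not always all listed) in √10 steps, then fixed, stained and imaged at 4× after 5 days.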
In the case of NCI-H1993, the relative viability is reported as 0.685. With SK-LU-1 the relative viability was 0.994. ABC-1 gave a relative viability of 1.24. SK-MES-1 was tested, and the relative viability was 0.449. Cell Line NCI-H661 has a relative viability of 0.481. Cell Line RERF-LC-KJ has a relative viability of 0.73.

Same assay, conditions: first compound 0.253 µM
NCI-H1993 was tested, and the relative viability was 0.802. For SK-LU-1, the relative viability was 1.05. Work on ABC-1 yielded a relative viability of 1.14. For SK-MES-1, the relative viability was 0.416. NCI-H661 gave a relative viability of 0.506. Cell Line RERF-LC-KJ has a relative viability of 0.766.

Same assay, conditions: first compound 0.8 µM
For NCI-H1993, the relative viability was 0.7. For ABC-1, the relative viability was 1.03. For SK-MES-1, the relative viability was 0.378. Work on NCI-H661 yielded a relative viability of 0.573. RERF-LC-KJ gave a relative viability of 0.693.

Same assay, conditions: first compound 2.53 µM
Cell Line NCI-H1993 has a relative viability of 0.869. Cell Line SK-LU-1 has a relative viability of 0.835. ABC-1 was tested, and the relative viability was 1.02. For SK-MES-1, the relative viability was 0.432. With NCI-H661 the relative viability was 0.468. Work on RERF-LC-KJ yielded a relative viability of 0.741.

Same assay, conditions: first compound 8 µM
NCI-H1993 showed a relative viability of 0.778. SK-LU-1 gave a relative viability of 0.937. ABC-1 showed a relative viability of 1.01. Cell Line SK-MES-1 has a relative viability of 0.369. With NCI-H661 the relative viability was 0.507. RERF-LC-KJ was tested, and the relative viability was 0.728.

What follows are cell lines tested with CC1=CC(=CC=C1)NC2=NC(=CS2)C3=CC=NC=C3 + C[C@@H](Oc1cc(-c2cnn(C3CCNCC3)c2)cnc1N)c1c(Cl)ccc(F)c1Cl [Crizotinib] (partner 1 µM) in the same assay as above. Conditions: first compound 0.08 µM.
How it was run: as §1
Work on NCI-H1993 yielded a relative viability of 0.847. SK-LU-1 was tested, and the relative viability was 0.751. For ABC-1, the relative viability was 0.851. In the case of SK-MES-1, the relative viability is reported as 0.79. For NCI-H661, the relative viability was 0.974. Work on RERF-LC-KJ yielded a relative viability of 0.741.

Same assay, conditions: first compound 0.253 µM
With NCI-H1993 the relative viability was 0.706. SK-LU-1 gave a relative viability of 1. ABC-1 gave a relative viability of 0.893. In the case of SK-MES-1, the relative viability is reported as 0.781. Work on NCI-H661 yielded a relative viability of 1. Work on RERF-LC-KJ yielded a relative viability of 0.705.

Same assay, conditions: first compound 0.8 µM
Cell Line NCI-H1993 has a relative viability of 0.853. Cell Line SK-LU-1 has a relative viability of 0.636. Cell Line ABC-1 has a relative viability of 1.03. In the case of SK-MES-1, the relative viability is reported as 0.815. NCI-H661 gave a relative viability of 0.925. For RERF-LC-KJ, the relative viability was 0.556.

Same assay, conditions: first compound 2.53 µM
Work on NCI-H1993 yielded a relative viability of 0.91. With SK-LU-1 the relative viability was 0.912. With ABC-1 the relative viability was 0.934. SK-MES-1 showed a relative viability of 0.842. In the case of NCI-H661, the relative viability is reported as 0.935. For RERF-LC-KJ, the relative viability was 0.59.

Same assay, conditions: first compound 8 µM
Cell Line NCI-H1993 has a relative viability of 0.946. Work on SK-LU-1 yielded a relative viability of 0.938. Cell Line ABC-1 has a relative viability of 1.19. Work on SK-MES-1 yielded a relative viability of 0.853. For NCI-H661, the relative viability was 0.908. For RERF-LC-KJ, the relative viability was 0.512.

These cell lines were tested with CC1=CC(=CC=C1)NC2=NC(=CS2)C3=CC=NC=C3 + C[C@]1(O)C[C@@H](c2nc(-c3ccc4ccc(-c5ccccc5)nc4c3)c3c(N)nccn32)C1 [Linsitinib] (partner 1 µM) in the same assay as above. Conditions: first compound 0.08 µM.
How it was run: as §1
NCI-H1993 gave a relative viability of 0.675. Cell Line SK-LU-1 has a relative viability of 1.03. With ABC-1 the relative viability was 0.758. In the case of SK-MES-1, the relative viability is reported as 0.878. Work on NCI-H661 yielded a relative viability of 0.589. RERF-LC-KJ showed a relative viability of 0.78.

Same assay, conditions: first compound 0.253 µM
In the case of NCI-H1993, the relative viability is reported as 0.605. Work on SK-LU-1 yielded a relative viability of 1.1. ABC-1 showed a relative viability of 0.708. Work on SK-MES-1 yielded a relative viability of 0.933. In the case of NCI-H661, the relative viability is reported as 0.577. Work on RERF-LC-KJ yielded a relative viability of 0.872.

Same assay, conditions: first compound 0.8 µM
For NCI-H1993, the relative viability was 0.714. Work on SK-LU-1 yielded a relative viability of 0.815. ABC-1 showed a relative viability of 0.584. In the case of SK-MES-1, the relative viability is reported as 0.81. For NCI-H661, the relative viability was 0.577. In the case of RERF-LC-KJ, the relative viability is reported as 0.684.

Same assay, conditions: first compound 2.53 µM
In the case of NCI-H1993, the relative viability is reported as 0.698. With SK-LU-1 the relative viability was 1.17. ABC-1 was tested, and the relative viability was 0.642. With SK-MES-1 the relative viability was 1.04. Cell Line NCI-H661 has a relative viability of 0.63. Work on RERF-LC-KJ yielded a relative viability of 0.683.

Same assay, conditions: first compound 8 µM
NCI-H1993 was tested, and the relative viability was 0.738. Cell Line SK-LU-1 has a relative viability of 1. For ABC-1, the relative viability was 0.709. SK-MES-1 was tested, and the relative viability was 0.874. NCI-H661 was tested, and the relative viability was 0.643. RERF-LC-KJ showed a relative viability of 0.563.

The cell lines below were run with Cc1ccc(NC(=O)c2ccc(CN3CCN(C)CC3)cc2)cc1Nc1nc(-c2cccnc2)cs1 [Masitinib] + COc1cccc2cc(-c3nc([C@H]4CC[C@H](C(=O)O)CC4)n4ncnc(N)c34)[nH]c12 [OSI-027] (partner 0.5 µM) in the same assay as above. Conditions: first compound 0.01 µM.
How it was run: as §1
In the case of NCI-H1993, the relative viability is reported as 0.533. SK-LU-1 showed a relative viability of 0.361. For ABC-1, the relative viability was 0.432. SK-MES-1 showed a relative viability of 0.615. In the case of NCI-H661, the relative viability is reported as 0.672. RERF-LC-KJ gave a relative viability of 0.629.

Same assay, conditions: first compound 0.03162 µM
Work on NCI-H1993 yielded a relative viability of 0.533. With SK-LU-1 the relative viability was 0.334. Work on ABC-1 yielded a relative viability of 0.52. For SK-MES-1, the relative viability was 0.668. NCI-H661 showed a relative viability of 0.648. Work on RERF-LC-KJ yielded a relative viability of 0.517.

Same assay, conditions: first compound 0.1 µM
Cell Line NCI-H1993 has a relative viability of 0.489. SK-LU-1 was tested, and the relative viability was 0.346. With ABC-1 the relative viability was 0.516. SK-MES-1 was tested, and the relative viability was 0.684. Work on NCI-H661 yielded a relative viability of 0.727. For RERF-LC-KJ, the relative viability was 0.583.

Same assay, conditions: first compound 0.3162 µM
In the case of NCI-H1993, the relative viability is reported as 0.541. Work on SK-LU-1 yielded a relative viability of 0.329. Cell Line ABC-1 has a relative viability of 0.334. For SK-MES-1, the relative viability was 0.52. Cell Line NCI-H661 has a relative viability of 0.643. With RERF-LC-KJ the relative viability was 0.418.

Same assay, conditions: first compound 1 µM
NCI-H1993 gave a relative viability of 0.514. SK-LU-1 gave a relative viability of 0.368. Work on ABC-1 yielded a relative viability of 0.38. SK-MES-1 showed a relative viability of 0.651. In the case of NCI-H661, the relative viability is reported as 0.528. With RERF-LC-KJ the relative viability was 0.412.

Source: the supplement of paper PMC10307832
